Common to all, as to experiment: growth of human tumour cells (NCI), 48 h
For assay [1], the system named is NCI/ADR-RES ovarian.
Assay [2] concerns SN12C renal.
Assay [3] deals with TK-10 renal.
Assay [4] deals with UACC-62 melanoma.
Assay [5] deals with RPMI-8226 leukemia.
The test system of assay [6] is UO-31 renal.
Assay [7] concerns SNB-19 CNS.
For assay [8], the system named is HL-60(TB) leukemia.
Assay [9] deals with M14 melanoma.
Assay [10] concerns IGROV1 ovarian.

Several values for one entry are separate records, joined by “and”; a condition that tells them apart may be missing. Identical values can stand only once.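 Compound exposure: 48 hours, 5 concentrations, 96-well plates. TGI marks complete inhibition of growth.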 Some results are limits rather than exact numbers.

Take `Brc1ccc(C2C3CSc4ccccc4C3=NN2c2ccccc2)cc1` (stereo not given): the TGI in [1], in [2], in assay [3], in [4], in [5] and in assay [6] was more than 100 µM throughout. The TGI in [7], in assay [8], in assay [9] and in [10] was more than 100 µM each time.
On to `CN(C)c1ccc(/C=C/C(=O)c2ccc(O)cc2)cc1`, for which the TGI was more than 40.6 µM in assay [1]; more than 100 µM in assay [2]; more than 100 µM in [3]; 19.3 µM in assay [4]; 22 µM in assay [5]; more than 100 µM in assay [6]. Also, the TGI in assay [7] was more than 100 µM; in assay [8] it was 5.57 µM; in [9], more than 100 µM; in [10] it was more than 100 µM.
On to `CC(=O)CCCCn1c(=O)c2c(nc(Br)n2C)n(C)c1=O`, for which the TGI in assay [1], in assay [2], in assay [3], in assay [4], in [5] and in assay [6] was more than 100 µM each time. Further, the TGI in [7], in assay [8], in [9] and in [10] was more than 100 µM in each case.
Consider `COc1ccc(/C=c2\c(=O)[nH]c3nc4ccccc4c(=O)n23)cc1`, for which the TGI in assay [1], in assay [2], in assay [3], in assay [4], in [5] and in assay [6] was more than 100 µM throughout. Further, the TGI in assay [7], in [8], in assay [9] and in assay [10] was more than 100 µM in each case.
In the case of `COc1nc(N=P(c2ccccc2)(c2ccccc2)c2ccccc2)cc(=O)n1C`, the TGI in assay [1], in assay [2], in assay [3], in assay [4], in assay [5] and in [6] was more than 100 µM each time. Moreover, the TGI in assay [7], in assay [8], in assay [9] and in [10] was more than 100 µM in each case.
With `CCN(CC)CCCNc1c2c(Cl)cc(Cl)cc2nc2nc(=O)[nH]c(C)c12`, the TGI in assay [1] was more than 100 µM; in assay [2], more than 100 µM; in assay [3], more than 100 µM; in assay [4], more than 100 µM; in [5], more than 10 µM; in [6] it was more than 100 µM. Further, the TGI in assay [7] is 44.3 µM; in assay [8] it was more than 100 µM; in assay [9], 61.9 µM; in assay [10] it was more than 100 µM.
As for `C[C@@H](CC(O)C(O)C(C)(C)O)C1CCC23CC12CCC1[C@@]2(C)CCC(O)C(C)(C)C2CC(OC2OC(CO)C(O)C(O)C2O)[C@]13C` (stereo not given in full), the TGI in assay [1], in [2], in [3], in assay [4], in assay [5] and in assay [6] was more than 10 µM throughout. For the same compound, the TGI in [7], in assay [8], in assay [9] and in [10] was more than 10 µM in each case.
Regarding `CC1=CC(=O)CC2(C)CCC(C(C)CC(=O)CC(C)C)CC12OO` (stereo not given), the TGI in [1] was 56.6 µM and 81.2 µM; in assay [2], 38 µM and 33.8 µM; in [3], 32.8 µM and 34.1 µM; in [4] it was 31.9 µM and 35.2 µM; in [5] it was 76.5 µM and 46.1 µM; in assay [6], 29.8 µM and 34.7 µM. Also, the TGI in assay [7] was more than 100 µM; in assay [8], 74.7 µM and 17.4 µM; in assay [9] it was 32.4 µM and 30.1 µM; in assay [10], 46.6 µM and 31 µM.
Consider `O=C1Oc2ccccc2C1C/C(=N\Nc1ccccc1)c1ccccc1O` (stereo not given), for which the TGI in assay [1] is 70.9 µM; in assay [2], more than 100 µM; in [3] it was more than 100 µM; in [4], more than 100 µM; in assay [5], 72.3 µM; in [6], 77.6 µM. For the same compound, the TGI in assay [7], in assay [8], in [9] and in [10] was more than 100 µM throughout.
As to `Clc1ccc(Cl)c(N=Nc2cc3c4c(c2)CCN4CCC3)c1`, the TGI in assay [1], in [2], in assay [3], in [4], in assay [5] and in [6] was more than 10 µM throughout. For the same compound, the TGI in assay [7], in assay [8], in assay [9] and in assay [10] was more than 10 µM in each case.
In the case of `Cc1c(C)c2c(c(N)c1C#N)C(=O)N(O)C2=O`, the TGI in assay [1], in assay [2], in assay [3], in [4], in assay [5] and in assay [6] was more than 100 µM throughout. In addition, the TGI in [7], in [8], in assay [9] and in assay [10] was more than 100 µM in each case.
With `COC(=O)C(CC(C)C)NC(=O)C(NC(=O)c1ccc(-c2ccc(Cl)cc2Cl)o1)C(C)C` (stereo not given), the TGI was more than 100 µM in assay [1]; 39.2 µM in assay [2]; 84.5 µM in assay [3]; 44.8 µM in [4]; 40.3 µM in [5]; 61.2 µM in [6]. Also, the TGI was more than 100 µM in assay [7], 30.8 µM in assay [8], 65.8 µM in assay [9] and more than 100 µM in [10].
`CC(CSC(=N)N)C(N)=O` (stereo not given): the TGI in assay [1], in assay [2], in assay [3], in assay [4], in assay [5] and in assay [6] was more than 100 µM each time. Besides, the TGI in assay [7], in assay [8], in assay [9] and in assay [10] was more than 100 µM throughout.

The values above are taken from PubChem BioAssay (NCI).
